Source: patent US8735414B2 (priority 2009, dated 2014)

Assays:
[1] = system: bicistronic HCV replicon (replicon RNA, GenBank Accession No. AJ242654); assay: HCV Replicon Assay; assay type: cell-based; settings: Hepatitis C virus, 72 h, read-out: Replicon IC50

Row | Compound | IC50 [1] [nM] | melting point [°C]
1 | Cc1ccc2c(C#N)c(-c3ncc(S(=O)(=O)N[C@@H](C)C4CC4)cn3)n(CC3CC3)c2c1 [compound 203, 2-[3-cyano-1-(cyclopropylmethyl)-6-methyl-1H-indol-2-yl]-N-[(1S)-1-cyclopropylethyl]pyrimidine-5-sulfonamide] | < 500 | 205 to 207
2 | Cc1cc2c(cc1Cl)c(C#N)c(-c1ccc(S(=O)(=O)N[C@@H](C)C(F)(F)F)cn1)n2C1CCC1 [compound 446, 6-(5-chloro-3-cyano-1-cyclobutyl-6-methyl-1H-indol-2-yl)-N-[(2S)-1,1,1-trifluoropropan-2-yl]pyridine-3-sulfonamide] | < 500 | 209 to 210
3 | CC(C)n1c(-c2ccc(S(=O)(=O)N[C@H](C)C(F)(F)F)cn2)c(C#N)c2ccc(OC(F)F)cc21 [compound 194, 6-[3-cyano-6-(difluoromethoxy)-1-(propan-2-yl)-1H-indol-2-yl]-N-[(2R)-1,1,1-trifluoropropan-2-yl]pyridine-3-sulfonamide] | < 500 | 166 to 168
4 | C[C@H](NS(=O)(=O)c1ccc(-c2c(C#N)c3cc(F)c(OC(F)F)cc3n2CCO)nc1)C(F)(F)F [compound 940, 6-[3-cyano-6-(difluoromethoxy)-5-fluoro-1-(2-hydroxyethyl)-1H-indol-2-yl]-N-[(2S)-1,1,1-trifluoropropan-2-yl]pyridine-3-sulfonamide] | 500 to 2000 | 203 to 208
5 | N#Cc1c(-c2ccc(S(=O)(=O)NC(CF)CF)cn2)n(CC2CC2)c2ccc(F)cc12 [compound 58, 6-[3-cyano-1-(cyclopropylmethyl)-5-fluoro-1H-indol-2-yl]-N-(1,3-difluoropropan-2-yl)pyridine-3-sulfonamide] | < 500 | 162 to 164
6 | CC(C)NS(=O)(=O)c1cnc(-c2c(C#N)c3ccc(C4CCC4)cc3n2C2CCC2)nc1 [compound 265, 2-(3-cyano-1,6-dicyclobutyl-1H-indol-2-yl)-N-(propan-2-yl)pyrimidine-5-sulfonamide] | 500 to 2000 | 192 to 194
7 | CCc1cc2c(cc1F)c(C#N)c(-c1ccc(S(=O)(=O)N[C@@H](C)C(F)(F)F)cn1)n2-c1ccc(F)c(Cl)c1 [compound 1062, 6-[1-(3-chloro-4-fluorophenyl)-3-cyano-6-ethyl-5-fluoro-1H-indol-2-yl]-N-[(2S)-1,1,1-trifluoropropan-2-yl]pyridine-3-sulfonamide] | < 500 | 228 to 232
8 | CCc1ccc2c(C#N)c(-c3ccc(S(=O)(=O)NC(C)C)cn3)n(C(C)C)c2c1 [compound 75, 6-[3-cyano-6-ethyl-1-(propan-2-yl)-1H-indol-2-yl]-N-(propan-2-yl)pyridine-3-sulfonamide] | < 500 | 185 to 186
9 | Cc1ccc2c(C#N)c(-c3ccc(S(=O)(=O)N[C@H](C)C(F)(F)F)cn3)n(-c3ncccn3)c2c1 [compound 688, 6-[3-cyano-6-methyl-1-(pyrimidin-2-yl)-1H-indol-2-yl]-N-[(2R)-1,1,1-trifluoropropan-2-yl]pyridine-3-sulfonamide] | < 500 | 196 to 198
10 | Cc1cc2c(cc1F)c(C(N)=O)c(-c1ccc(S(=O)(=O)NC(C)(C)C(F)(F)F)cn1)n2C1CCCC1 [compound 701, 1-cyclopentyl-5-fluoro-6-methyl-2-{5-[(1,1,1-trifluoro-2-methylpropan-2-yl)sulfamoyl]pyridin-2-yl}-1H-indole-3-carboxamide] | < 500 | 211 to 214
11 | N#Cc1c(-c2ncc(S(=O)(=O)NC(CF)CF)cn2)n(C2CCCC2)c2cc(Cl)ccc12 [compound 157, 2-(6-chloro-3-cyano-1-cyclopentyl-1H-indol-2-yl)-N-(1,3-difluoropropan-2-yl)pyrimidine-5-sulfonamide] | < 500 | 233 to 238
12 | COc1cc2c(cc1F)c(C#N)c(-c1ccc(S(=O)(=O)NC(CF)CF)cn1)n2C1CCC1 [compound 102, 6-(3-cyano-1-cyclobutyl-5-fluoro-6-methoxy-1H-indol-2-yl)-N-(1,3-difluoropropan-2-yl)pyridine-3-sulfonamide] | < 500 | 217 to 219
13 | CC(C)NS(=O)(=O)c1cnc(-c2c(C#N)c3ccc(CC(F)F)cc3n2C2CCCC2)nc1 [compound 598, 2-[3-cyano-1-cyclopentyl-6-(2,2-difluoroethyl)-1H-indol-2-yl]-N-(propan-2-yl)pyrimidine-5-sulfonamide] | < 500 | 204 to 218
14 | CC(C)c1ccc2c(C#N)c(-c3ccc(S(=O)(=O)NC(CF)CF)cn3)n(C(C)C)c2c1 [compound 456, 6-[3-cyano-1,6-di(propan-2-yl)-1H-indol-2-yl]-N-(1,3-difluoropropan-2-yl)pyridine-3-sulfonamide] | < 500 | 165 to 173
15 | CC(C)c1ccc2c(C#N)c(-c3ncc(S(=O)(=O)N[C@@H](C)C(F)(F)F)cn3)n(C3CCC3)c2c1 [compound 455, 2-[3-cyano-1-cyclobutyl-6-(propan-2-yl)-1H-indol-2-yl]-N-[(2S)-1,1,1-trifluoropropan-2-yl]pyrimidine-5-sulfonamide] | < 500 | 217 to 222
16 | CC(C)NS(=O)(=O)c1cnc(-c2c(C#N)c3cc(Cl)ccc3n2C(C)C)nc1 [compound 120, 2-[5-chloro-3-cyano-1-(propan-2-yl)-1H-indol-2-yl]-N-(propan-2-yl)pyrimidine-5-sulfonamide] | < 500 | 202 to 220
17 | Cc1ccc2c(c1)c(C#N)c(-c1ccc(S(=O)(=O)NC(CF)CF)cn1)n2CC1CC1 [compound 373, 6-[3-cyano-1-(cyclopropylmethyl)-5-methyl-1H-indol-2-yl]-N-(1,3-difluoropropan-2-yl)pyridine-3-sulfonamide] | < 500 | 186 to 188
18 | COc1ccc2c(C#N)c(-c3ncc(S(=O)(=O)NC(CF)CF)cn3)n(C3CCCCC3)c2c1 [compound 520, 2-(3-cyano-1-cyclohexyl-6-methoxy-1H-indol-2-yl)-N-(1,3-difluoropropan-2-yl)pyrimidine-5-sulfonamide] | 500 to 2000 | 209 to 215
19 | C[C@H](NS(=O)(=O)c1ccc(-c2c(C#N)c3ccc(F)cc3n2C2CCCCC2)nc1)C(F)(F)F [compound 394, 6-(3-cyano-1-cyclohexyl-6-fluoro-1H-indol-2-yl)-N-[(2S)-1,1,1-trifluoropropan-2-yl]pyridine-3-sulfonamide] | < 500 | 213 to 215
20 | CCc1cc2c(cc1F)c(C#N)c(-c1ccc(S(=O)(=O)N[C@@H](C)C(F)(F)F)cn1)n2-c1ccc(Cl)cc1 [compound 1003, 6-[1-(4-chlorophenyl)-3-cyano-6-ethyl-5-fluoro-1H-indol-2-yl]-N-[(2S)-1,1,1-trifluoropropan-2-yl]pyridine-3-sulfonamide] | < 500 | 279 to 289
21 | Cc1ccc2c(C#N)c(-c3ccc(S(=O)(=O)NC(CF)CF)cn3)n(C3CCCC3)c2c1F [compound 423, 6-(3-cyano-1-cyclopentyl-7-fluoro-6-methyl-1H-indol-2-yl)-N-(1,3-difluoropropan-2-yl)pyridine-3-sulfonamide] | < 500 | 211 to 216
22 | Cc1c(F)cc2c(c1F)c(C#N)c(-c1ccc(S(=O)(=O)NC(CF)CF)cn1)n2C1CCCC1 [compound 558, 6-(3-cyano-1-cyclopentyl-4,6-difluoro-5-methyl-1H-indol-2-yl)-N-(1,3-difluoropropan-2-yl)pyridine-3-sulfonamide] | < 500 | 214 to 219
23 | N#Cc1c(-c2ccc(S(=O)(=O)NC(CF)CF)cn2)n(CC2CC2)c2cc(Cl)c(F)cc12 [compound 110, 6-[6-chloro-3-cyano-1-(cyclopropylmethyl)-5-fluoro-1H-indol-2-yl]-N-(1,3-difluoropropan-2-yl)pyridine-3-sulfonamide] | < 500 | 202 to 204
24 | Cc1cc2c(cc1F)c(C#N)c(-c1ccc(S(=O)(=O)N[C@@H](C)C(F)(F)F)cn1)n2-c1ccoc1 [compound 991, 6-[3-cyano-5-fluoro-1-(furan-3-yl)-6-methyl-1H-indol-2-yl]-N-[(2S)-1,1,1-trifluoropropan-2-yl]pyridine-3-sulfonamide] | < 500 | 215 to 219
25 | N#Cc1c(-c2ncc(S(=O)(=O)NC(CF)CF)cn2)n(C2CCCC2)c2cc(C3CC3)ccc12 [compound 173, 2-(3-cyano-1-cyclopentyl-6-cyclopropyl-1H-indol-2-yl)-N-(1,3-difluoropropan-2-yl)pyrimidine-5-sulfonamide] | < 500 | 215 to 219
26 | N#Cc1c(-c2ccc(S(=O)(=O)NC(CF)CF)cn2)n(-c2ccccc2)c2cc(C3CC3)ccc12 [compound 95, 6-(3-cyano-6-cyclopropyl-1-phenyl-1H-indol-2-yl)-N-(1,3-difluoropropan-2-yl)pyridine-3-sulfonamide] | < 500 | 171 to 175
27 | N#Cc1c(-c2ccc(S(=O)(=O)NC(CF)CF)cn2)n(-c2ccccc2)c2ccc(Cl)cc12 [compound 112, 6-(5-chloro-3-cyano-1-phenyl-1H-indol-2-yl)-N-(1,3-difluoropropan-2-yl)pyridine-3-sulfonamide] | < 500 | 192 to 196
28 | CCS(=O)(=O)Nc1ccc(-c2c(C#N)c3ccc(C4CC4)cc3n2C2CCC2)cn1 [compound 288, N-[5-(3-cyano-1-cyclobutyl-6-cyclopropyl-1H-indol-2-yl)pyridin-2-yl]ethanesulfonamide] | 500 to 2000 | 241 to 243
29 | Cc1cc2c(cc1F)c(C#N)c(-c1ccc(S(=O)(=O)NC(CF)CF)cn1)n2C1CCCC1 [compound 407, 6-(3-cyano-1-cyclopentyl-5-fluoro-6-methyl-1H-indol-2-yl)-N-(1,3-difluoropropan-2-yl)pyridine-3-sulfonamide] | < 500 | 211 to 213
